14 compounds from patent publication US12404241B2 (Celgene Corporation, priority 2018, dated 2025) can be followed below.

The target of this experiment is T1, AR (Homo sapiens, UniProt P10275).
T1 construct: endogenous in cells; host or cells: VCaP cells
T1 sequence (P10275 1-920): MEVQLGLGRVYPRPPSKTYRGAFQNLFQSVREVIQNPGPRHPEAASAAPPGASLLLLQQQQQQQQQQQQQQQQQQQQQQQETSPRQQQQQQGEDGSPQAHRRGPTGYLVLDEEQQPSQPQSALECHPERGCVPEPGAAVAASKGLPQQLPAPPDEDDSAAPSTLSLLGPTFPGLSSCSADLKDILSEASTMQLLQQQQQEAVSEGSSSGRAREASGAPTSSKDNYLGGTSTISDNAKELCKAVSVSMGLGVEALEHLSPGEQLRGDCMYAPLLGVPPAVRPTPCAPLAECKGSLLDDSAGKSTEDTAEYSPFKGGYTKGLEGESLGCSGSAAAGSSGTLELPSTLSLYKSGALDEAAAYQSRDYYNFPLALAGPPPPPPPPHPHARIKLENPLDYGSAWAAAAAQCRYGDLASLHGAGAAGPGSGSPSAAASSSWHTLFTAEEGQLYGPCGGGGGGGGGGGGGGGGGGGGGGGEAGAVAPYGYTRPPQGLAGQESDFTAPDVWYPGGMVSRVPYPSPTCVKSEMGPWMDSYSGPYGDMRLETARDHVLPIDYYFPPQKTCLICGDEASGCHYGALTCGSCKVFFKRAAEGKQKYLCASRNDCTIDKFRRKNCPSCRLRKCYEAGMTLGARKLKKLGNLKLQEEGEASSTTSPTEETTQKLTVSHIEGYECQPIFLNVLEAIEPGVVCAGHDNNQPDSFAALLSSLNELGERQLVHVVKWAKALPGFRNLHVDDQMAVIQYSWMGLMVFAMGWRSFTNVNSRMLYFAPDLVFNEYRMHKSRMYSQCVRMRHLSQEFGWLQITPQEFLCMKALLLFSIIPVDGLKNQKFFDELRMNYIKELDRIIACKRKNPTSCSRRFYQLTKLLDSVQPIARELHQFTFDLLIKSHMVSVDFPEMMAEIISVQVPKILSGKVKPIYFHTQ
Kind of experiment: VCAP AR Degradation Assay. The format is cell-based. The conditions noted are these: for Y (AR degradation efficiency, % of DMSO control): class symbols *; for DC50: class symbols A-C, read-out: DC50. The procedure, abridged: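 AR protein in lysates quantified by sandwich ELISA after 24 h exposure of VCaP cells at 37 °C to 10 concentrations (1:3 steps, 5 μM top, final). Four-parameter logistic fit of percent-of-DMSO levels gave DC50 (50% degradation), EC50 and minimal AR level Y.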

In general, DC50 refers to the midpoint of the concentration-degradation curve.

Turning to `CCc1cc(N2C(=S)N(c3ccc(C#N)c(C(F)(F)F)c3)C(=O)C2(C)C)ccc1OCCN1C[C@H](C)N(CC(=O)Nc2cc(Cl)cc(NC3CCC(=O)NC3=O)c2)[C@@H](C)C1` (stereo partly drawn) [Example 147, N-(3-chloro-5-(2,6-dioxopiperidin-3-ylamino)phenyl)-2-((2S,6S)-4-(2-(4-(3-(4-cyano-3-(trifluoromethyl)phenyl)-5,5-dimethyl-4-oxo-2-thioxoimidazolidin-1-yl)-2-ethylphenoxy)ethyl)-2,6-dimethylpiperazin-1-yl)acetamide], the “Y (AR degradation efficiency, % of DMSO control)” value is “* (0<Y<=25%)” and the DC50 is below 100 nM.

Regarding `C[C@@H]1CN(CCOc2ccc(N3C(=S)N(c4ccc(C#N)c(C(F)(F)F)c4)C(=O)C3(C)C)cc2C(C)(F)F)CCN1CC(=O)Nc1cc(Cl)cc(NC2CCC(=O)NC2=O)c1` (stereo partly drawn) [Example 148, N-(3-chloro-5-(2,6-dioxopiperidin-3-ylamino)phenyl)-2-((R)-4-(2-(4-(3-(4-cyano-3-(trifluoromethyl)phenyl)-5,5-dimethyl-4-oxo-2-thioxoimidazolidin-1-yl)-2-(1,1-difluoroethyl)phenoxy)ethyl)-2-methylpiperazin-1-yl)acetamide], the “Y (AR degradation efficiency, % of DMSO control)” value is given as “* (0<Y<=25%)” and the half-maximal degradation concentration (DC50) was below 100 nM.

As for `C[C@@H]1CN(CCOc2ccc(N3C(=S)N(c4cnc(C#N)c(C(F)(F)F)c4)C(=O)C3(C)C)cc2C(C)(F)F)CCN1CC(=O)Nc1cc(Cl)cc(NC2CCC(=O)NC2=O)c1` (stereo partly drawn) [Example 149, N-(3-chloro-5-(2,6-dioxopiperidin-3-ylamino)phenyl)-2-((R)-4-(2-(4-(3-(6-cyano-5-(trifluoromethyl)pyridin-3-yl)-5,5-dimethyl-4-oxo-2-thioxoimidazolidin-1-yl)-2-(1,1-difluoroethyl)phenoxy)ethyl)-2-methylpiperazin-1-yl)acetamide], the “Y (AR degradation efficiency, % of DMSO control)” value is “* (0<Y<=25%)” and the DC50 was below 100 nM.

As to `CCc1cc(N2C(=S)N(c3ccc(C#N)c(C(F)(F)F)c3)C(=O)C2(C)C)ccc1OCCN1C[C@@H](C)N(CC(=O)Nc2cccc(NC3CCC(=O)NC3=O)c2)[C@@H](C)C1` (stereo partly drawn) [Example 150, 2-((2S,6R)-4-(2-(4-(3-(4-cyano-3-(trifluoromethyl)phenyl)-5,5-dimethyl-4-oxo-2-thioxoimidazolidin-1-yl)-2-ethylphenoxy)ethyl)-2,6-dimethylpiperazin-1-yl)-N-(3-(2,6-dioxopiperidin-3-ylamino)phenyl)acetamide], the “Y (AR degradation efficiency, % of DMSO control)” value is “* (0<Y<=25%)” and the DC50 is below 100 nM.

`CCc1cc(N2C(=S)N(c3cnc(C#N)c(C(F)(F)F)c3)C(=O)C2(C)C)ccc1OCCN1C[C@@H](C)N(CC(=O)Nc2cccc(NC3CCC(=O)NC3=O)c2)[C@@H](C)C1` (stereo partly drawn) [Example 151, 2-((2R,6S)-4-(2-(4-(3-(6-cyano-5-(trifluoromethyl)pyridin-3-yl)-5,5-dimethyl-4-oxo-2-thioxoimidazolidin-1-yl)-2-ethylphenoxy)ethyl)-2,6-dimethylpiperazin-1-yl)-N-(3-(2,6-dioxopiperidin-3-ylamino)phenyl)acetamide]: the “Y (AR degradation efficiency, % of DMSO control)” value was “* (0<Y<=25%)” and the DC50 is below 100 nM.

As to `C[C@@H]1CN(CCOc2ccc(N3C(=S)N(c4ccc(C#N)c(C(F)(F)F)c4)C(=O)C3(C)C)cc2CC(F)F)CCN1CC(=O)Nc1cc(Cl)cc(NC2CCC(=O)NC2=O)c1` (stereo partly drawn) [Example 152, N-(3-chloro-5-(2,6-dioxopiperidin-3-ylamino)phenyl)-2-((R)-4-(2-(4-(3-(4-cyano-3-(trifluoromethyl)phenyl)-5,5-dimethyl-4-oxo-2-thioxoimidazolidin-1-yl)-2-(2,2-difluoroethyl)phenoxy)ethyl)-2-methylpiperazin-1-yl)acetamide], the “Y (AR degradation efficiency, % of DMSO control)” value is “* (0<Y<=25%)” and the DC50 is below 100 nM.

In the case of `C[C@@H]1CN(CCOc2ccc(N3C(=S)N(c4ccc(C#N)c(C(F)(F)F)c4)C(=O)C3(C)C)cc2CC(F)F)CCN1CC(=O)Nc1cccc(NC2CCC(=O)NC2=O)c1` (stereo partly drawn) [Example 153, 2-((R)-4-(2-(4-(3-(4-cyano-3-(trifluoromethyl)phenyl)-5,5-dimethyl-4-oxo-2-thioxoimidazolidin-1-yl)-2-(2,2-difluoroethyl)phenoxy)ethyl)-2-methylpiperazin-1-yl)-N-(3-(2,6-dioxopiperidin-3-ylamino)phenyl)acetamide], the “Y (AR degradation efficiency, % of DMSO control)” value is listed as “* (0<Y<=25%)” and the DC50 is below 100 nM.

Take `CCc1cc(N2C(=S)N(c3ccc(C#N)c(C(F)(F)F)c3)C(=O)C2(C)C)ccc1OCCN1CCN(CC(=O)Nc2cc(C#N)cc(NC3CCC(=O)NC3=O)c2)[C@H](C)C1` (stereo partly drawn) [Example 154, 2-((R)-4-(2-(4-(3-(4-cyano-3-(trifluoromethyl)phenyl)-5,5-dimethyl-4-oxo-2-thioxoimidazolidin-1-yl)-2-ethylphenoxy)ethyl)-2-methylpiperazin-1-yl)-N-(3-cyano-5-(2,6-dioxopiperidin-3-ylamino)phenyl)acetamide]: the “Y (AR degradation efficiency, % of DMSO control)” value is reported as “* (0<Y<=25%)” and the DC50 was below 100 nM.

As to `CCc1cc(N2C(=S)N(c3cnc(C#N)c(C(F)(F)F)c3)C(=O)C2(C)C)ccc1OCCN1CCN(CC(=O)Nc2cc(C#N)cc(NC3CCC(=O)NC3=O)c2)[C@H](C)C1` (stereo partly drawn) [Example 155, N-(3-cyano-5-(2,6-dioxopiperidin-3-ylamino)phenyl)-2-((R)-4-(2-(4-(3-(6-cyano-5-(trifluoromethyl)pyridin-3-yl)-5,5-dimethyl-4-oxo-2-thioxoimidazolidin-1-yl)-2-ethylphenoxy)ethyl)-2-methylpiperazin-1-yl)acetamide], the “Y (AR degradation efficiency, % of DMSO control)” value is “* (0<Y<=25%)” and the half-maximal degradation concentration (DC50) was below 100 nM.

For the compound `C[C@@H]1CN(CCOc2ccc(N3C(=S)N(c4ccc(C#N)c(C(F)(F)F)c4)C(=O)C3(C)C)cc2CC(F)F)CCN1CC(=O)Nc1cc(NC2CCC(=O)NC2=O)ccc1F` (stereo partly drawn) [Example 156, 2-((R)-4-(2-(4-(3-(4-cyano-3-(trifluoromethyl)phenyl)-5,5-dimethyl-4-oxo-2-thioxoimidazolidin-1-yl)-2-(2,2-difluoroethyl)phenoxy)ethyl)-2-methylpiperazin-1-yl)-N-(5-(2,6-dioxopiperidin-3-ylamino)-2-fluorophenyl)acetamide], the “Y (AR degradation efficiency, % of DMSO control)” value is recorded as “* (0<Y<=25%)” and the DC50 is below 100 nM.

Take `CC(F)(F)c1cc(N2C(=S)N(c3ccc(C#N)c(C(F)(F)F)c3)C(=O)C2(C)C)ccc1OCCN1CCN(CC(=O)Nc2cc(Cl)cc(NC3CCC(=O)NC3=O)c2)CC1` (stereo not shown) [Example 157, N-(3-chloro-5-(2,6-dioxopiperidin-3-ylamino)phenyl)-2-(4-(2-(4-(3-(4-cyano-3-(trifluoromethyl)phenyl)-5,5-dimethyl-4-oxo-2-thioxoimidazolidin-1-yl)-2-(1,1-difluoroethyl)phenoxy)ethyl)piperazin-1-yl)acetamide]: the “Y (AR degradation efficiency, % of DMSO control)” value is listed as “* (0<Y<=25%)” and the DC50 was below 100 nM.

Consider `C[C@@H]1CN(CCOc2ccc(N3C(=S)N(c4ccc(C#N)c(C(F)(F)F)c4)C(=O)C3(C)C)cc2CC(F)F)CCN1CC(=O)Nc1cc(F)cc(NC2CCC(=O)NC2=O)c1` (stereo partly drawn) [Example 158, 2-((R)-4-(2-(4-(3-(4-cyano-3-(trifluoromethyl)phenyl)-5,5-dimethyl-4-oxo-2-thioxoimidazolidin-1-yl)-2-(2,2-difluoroethyl)phenoxy)ethyl)-2-methylpiperazin-1-yl)-N-(3-(2,6-dioxopiperidin-3-ylamino)-5-fluorophenyl)acetamide], for which the “Y (AR degradation efficiency, % of DMSO control)” value is listed as “* (0<Y<=25%)” and the DC50 is below 100 nM.

For the compound `CC1(C)C(=O)N(c2ccc(C#N)c(C(F)(F)F)c2)C(=S)N1c1ccc(OCCN2CCN(CC(=O)Nc3cc(Cl)cc(NC4CCC(=O)NC4=O)c3)CC2)c(CC(F)F)c1` (stereo not shown) [Example 159, N-(3-chloro-5-(2,6-dioxopiperidin-3-ylamino)phenyl)-2-(4-(2-(4-(3-(4-cyano-3-(trifluoromethyl)phenyl)-5,5-dimethyl-4-oxo-2-thioxoimidazolidin-1-yl)-2-(2,2-difluoroethyl)phenoxy)ethyl)piperazin-1-yl)acetamide], the “Y (AR degradation efficiency, % of DMSO control)” value is given as “* (0<Y<=25%)” and the DC50 is below 100 nM.

`CC1(C)C(=O)N(c2ccc(C#N)c(C(F)(F)F)c2)C(=S)N1c1ccc(OCCN2CCN(CC(=O)Nc3cccc(NC4CCC(=O)NC4=O)c3)CC2)c(CCF)c1` (stereo not shown) [Example 160, 2-(4-(2-(4-(3-(4-cyano-3-(trifluoromethyl)phenyl)-5,5-dimethyl-4-oxo-2-thioxoimidazolidin-1-yl)-2-(2-fluoroethyl)phenoxy)ethyl)piperazin-1-yl)-N-(3-(2,6-dioxopiperidin-3-ylamino)phenyl)acetamide]: the “Y (AR degradation efficiency, % of DMSO control)” value is given as “* (0<Y<=25%)” and the DC50 was below 100 nM.
